Assay results: ChEMBL document CHEMBL1137122, “Solution phase parallel synthesis and evaluation of MAPK inhibitory activities of close structural analogues of a Ras pathway modulator” (Bioorg Med Chem Lett, 2004)

Columns and labels:
[1] = target: T1, Serine/threonine-protein kinase RAF and Dual specificity mitogen-activated protein kinase kinase 1 (Raf/MEK) (Homo sapiens, UniProt P04049+Q02750); assay: Inhibitory activity in EGF-stimulated Elk1-luciferase reporter assay in HeLa cells at 20 uM; assay type: functional, cell-based
HCT-116 [2] = assay: Ability of compound to inhibit anchorage independent colony formation (soft agar growth assay) in HCT116 cells; assay type: functional; settings: Homo sapiens
HCT-116 [3] = assay: cells; settings: Homo sapiens
Description: Antiproliferative activity was evaluated using HCT116 cells in WST-1 assay at 15 uM

HCT-116 [4] = assay: Antiproliferative activity was evaluated using HCT116 cells in WST-1 assay; assay type: functional; settings: Homo sapiens
[5] = target: T1, Serine/threonine-protein kinase RAF and Dual specificity mitogen-activated protein kinase kinase 1 (Raf/MEK); assay: Inhibition of EGF-stimulated Elk1-luciferase reporter assay in HeLa cells; assay type: functional, cell-based
[6] = target: T1, Serine/threonine-protein kinase RAF and Dual specificity mitogen-activated protein kinase kinase 1 (Raf/MEK); assay: Inhibitory activity in EGF-stimulated Elk1-luciferase reporter assay in HeLa cells at 15 uM; assay type: functional, cell-based
[7] = target: T1, Serine/threonine-protein kinase RAF and Dual specificity mitogen-activated protein kinase kinase 1 (Raf/MEK); assay: Inhibitory activity in EGF-stimulated Elk1-luciferase reporter assay in HeLa cells at 30 uM; assay type: functional, cell-based
[8] = target: T1, Serine/threonine-protein kinase RAF and Dual specificity mitogen-activated protein kinase kinase 1 (Raf/MEK); assay: Inhibitory activity in EGF-stimulated Elk1-luciferase reporter assay in HeLa cells at 60 uM; assay type: functional, cell-based
HCT-116 [9] = assay: Antiproliferative activity was evaluated using HCT116 cells in WST-1 assay at 60 uM; assay type: functional; settings: Homo sapiens

T1 sequence (P04049 whole entry, looked up): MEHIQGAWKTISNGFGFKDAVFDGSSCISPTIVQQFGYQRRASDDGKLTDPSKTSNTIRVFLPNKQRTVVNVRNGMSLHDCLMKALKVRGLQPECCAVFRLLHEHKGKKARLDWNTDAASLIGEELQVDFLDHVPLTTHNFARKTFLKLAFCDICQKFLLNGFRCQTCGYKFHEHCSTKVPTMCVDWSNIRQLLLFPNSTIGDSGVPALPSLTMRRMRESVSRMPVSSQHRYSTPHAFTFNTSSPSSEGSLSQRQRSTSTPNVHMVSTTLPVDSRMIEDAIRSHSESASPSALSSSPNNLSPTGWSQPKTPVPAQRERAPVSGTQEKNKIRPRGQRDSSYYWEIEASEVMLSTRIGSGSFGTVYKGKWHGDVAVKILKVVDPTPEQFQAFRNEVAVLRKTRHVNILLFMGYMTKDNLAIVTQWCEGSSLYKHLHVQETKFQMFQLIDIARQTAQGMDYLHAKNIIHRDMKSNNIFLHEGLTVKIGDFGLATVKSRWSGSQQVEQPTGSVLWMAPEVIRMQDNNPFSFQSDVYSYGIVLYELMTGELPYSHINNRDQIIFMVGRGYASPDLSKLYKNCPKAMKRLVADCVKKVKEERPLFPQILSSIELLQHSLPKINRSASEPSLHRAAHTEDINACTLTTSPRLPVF
T1 sequence (Q02750 whole entry, looked up): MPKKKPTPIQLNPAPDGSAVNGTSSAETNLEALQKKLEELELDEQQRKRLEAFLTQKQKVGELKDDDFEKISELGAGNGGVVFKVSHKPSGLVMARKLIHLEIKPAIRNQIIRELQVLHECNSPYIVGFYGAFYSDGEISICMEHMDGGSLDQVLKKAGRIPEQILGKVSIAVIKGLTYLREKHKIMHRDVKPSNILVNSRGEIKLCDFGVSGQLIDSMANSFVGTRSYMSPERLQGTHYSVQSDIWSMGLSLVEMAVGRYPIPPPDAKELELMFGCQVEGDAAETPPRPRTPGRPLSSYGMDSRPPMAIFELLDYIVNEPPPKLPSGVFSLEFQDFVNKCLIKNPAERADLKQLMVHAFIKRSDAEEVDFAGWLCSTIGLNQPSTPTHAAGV

SMILES | GI50 (HCT-116 [2]) [µM] | GI50 (HCT-116 [4]) [µM] | IC50 [5] [µM] | other results
COc1cc(CN(CCc2ccccn2)C(=O)COCc2ccccc2)ccc1OCc1ccccc1 | – | – | – | inhibition [1]: 43%
N#CC(=C(/N)Sc1ccccc1N)/C(C#N)=C(\N)Sc1ccccc1N | 19.4 | – | – | inhibition at 15 µM (HCT-116 [3]): 35%
COc1cc(CN(CCc2ccccn2)C(=O)CCC(C)c2ccccc2)ccc1OCc1ccccc1 (centres undefined) | 23.5 | 13.2 | 11.2 | –
COc1cc(CN(CCc2ccccn2)C(=O)C(N)Cc2ccccc2)ccc1OCc1ccccc1 (centres undefined) | – | – | – | inhibition [1]: 14%
O=C(CCCCc1ccccc1)N(CCc1ccccn1)Cc1ccc(OCc2ccccc2)c(O)c1 | – | 31.6 | 19.4 | –
COc1ccc(CN(CCc2ccccn2)C(=O)c2ccccc2Cl)cc1OCc1ccccc1 | – | – | – | inhibition [1]: 32%
COc1cc(CN(CCc2ccccn2)C(=O)c2ccccc2Cl)ccc1OCc1ccccc1 | 22.1 | 24.7 | 20.6 | –
COc1cc(CN(CCc2ccccn2)C(=O)CNCc2ccccc2)ccc1OCc1ccccc1 | – | – | – | inhibition [1]: 6%
COc1cc(C(=O)N(CCc2ccccn2)Cc2ccccc2Cl)ccc1OCc1ccccc1 | 18.8 | 29 | 16.2 | –
COc1ccc(CN(CCc2ccccn2)C(=O)c2ccccc2Cl)cc1OC | – | – | – | inhibition [1]: 24%
O=C(CCCCc1ccccc1)N(CCc1ccccn1)Cc1ccc(OCc2ccccc2)c(OCCO)c1 | 14.4 | 18.6 | 14.2 | –
O=C(c1ccccc1Cl)N(CCc1ccccn1)CC1CCN(CCc2ccccc2)CC1 | – | – | – | inhibition [8]: 7%; inhibition at 60 µM (HCT-116 [9]): 32%
COc1cc(CN(CCc2ccccn2)C(=O)CCCCc2ccccc2)ccc1OCc1ccccc1 | 20.6 | 16.2 | 9 | –
COc1cc(CN(CCc2ccccn2)C(=O)C2CC2c2ccccc2)ccc1OCc1ccccc1 (trans isomer) | 25.9 | 23.9 | 10.5 | –

The next lines start with results.

GI50 (HCT-116 [2]) [µM] | GI50 (HCT-116 [4]) [µM] | IC50 [5] [µM] | SMILES | other results
32.3 | 22.6 | 12.3 | COc1cc(CN(CCc2cccc(O)n2)C(=O)CCCCc2ccccc2)ccc1OCc1ccccc1 | –
– | – | 25.3 | COc1cc(CN(Cc2ccccc2Cl)C(=O)Cc2ccccn2)ccc1OCc1ccccc1 | –
3.5 | 5.4 | – | COc1cc(CN(CCC2CCCCN2)C(=O)CCCc2ccccc2)ccc1OCc1ccccc1 (centres undefined) | inhibition [6]: 0%; inhibition [7]: 100%
6.6 | 5.4 | – | CNC(=O)c1cc(Oc2ccc(NC(=O)Nc3ccc(Cl)c(C(F)(F)F)c3)cc2)ccn1 [SORAFENIB] | –
